{
  "source": "patent US8652440B2",
  "about": "“Methods for diagnosing diseases and evaluating treatments therefor using PET” (The Trustees of Columbia University in the City of New York, priority 2007, dated 2014)",
  "target": "central M2 cholinergic receptors (Homo sapiens, UniProt P08172)",
  "sequence (P08172 whole entry)": "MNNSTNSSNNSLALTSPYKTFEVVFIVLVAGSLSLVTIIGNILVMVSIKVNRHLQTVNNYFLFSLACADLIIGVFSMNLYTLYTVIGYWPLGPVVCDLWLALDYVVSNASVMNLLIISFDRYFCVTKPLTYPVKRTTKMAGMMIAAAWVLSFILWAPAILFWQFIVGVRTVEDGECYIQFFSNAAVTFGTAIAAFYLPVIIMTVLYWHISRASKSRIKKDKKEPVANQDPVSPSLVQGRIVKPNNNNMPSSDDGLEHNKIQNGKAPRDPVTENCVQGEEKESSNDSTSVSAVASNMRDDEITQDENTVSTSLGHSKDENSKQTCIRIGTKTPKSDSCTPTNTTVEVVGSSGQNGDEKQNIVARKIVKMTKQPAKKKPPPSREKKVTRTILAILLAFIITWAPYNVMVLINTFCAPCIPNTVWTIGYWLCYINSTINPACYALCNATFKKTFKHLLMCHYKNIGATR",
  "conditions": "mean of 11 subjects; for K1 (rate constant for transfer from plasma to the tissue) / VT (total distribution volume) / K2 (tissue clearance rate constant): 1TKA",
  "from_the_text": "Synapse 49:150-156 (2003). […] Carson R E, Kiesewetter D O, Jagoda E, Der M G, Herscovitch P, Eckelman W C, Muscarinic cholinergic receptor measurements with [^18F]FP-TZTP: control and competition studies. […] J Nucl Med 40:30P (1999).\nStep 1: To calculate group mean parameter values that can be used for computer simulation analysis, ROI TACs were fitted by one-tissue kinetic analysis “1TKA” using individual metabolite-corrected plasma input functions. The mean 1TKA parameter values from 11 subjects were then used to generate noise-free TAC data as described below in Step 3.\nStep 2: ROI TAC percent noise was calculated based on deviations from 1TKA fitting (100×SD/mean) for the latter portion of the TAC (60 to 120 min) and the mean percent noise over these 11 subjects was calculated (Table 2).",
  "note": "Read-outs that look alike come from different tables or passages of the source.",
  "data": [
    {"smiles": "CN1CCC=C(c2nsnc2SCCC[18F])C1", "note": "[[^18F]FP-TZTP, 3-(3-(3-[18F]Fluropropyl)thio-1,2,5-thiadiazol-4-yl)-1,2,5,6 tetrahydro-1-methylpyridine]", "values": [
      {"measurement": "K1 (rate constant for transfer from plasma to the tissue)", "setting": "cerebellum (input region, K'1)", "result": 0.466, "unit": "mL/min/cm^3"},
      {"measurement": "VT (total distribution volume)", "setting": "cerebellum (input region, V'T)", "result": 43, "unit": "mL/cm^3"},
      {"measurement": "K2 (tissue clearance rate constant)", "setting": "cerebellum (input region, k'2)", "result": 0.0110, "unit": "min⁻¹"},
      {"measurement": "k2/k′2", "setting": "thalamus k2 relative to cerebellum k′2", "result": 1.60},
      {"measurement": "K1 (rate constant for transfer from plasma to the tissue)", "setting": "thalamus", "result": 0.506, "unit": "mL/min/cm^3"},
      {"measurement": "K2 (tissue clearance rate constant)", "setting": "thalamus", "result": 0.0176, "unit": "min⁻¹"},
      {"measurement": "VT (total distribution volume)", "setting": "thalamus", "result": 29, "unit": "mL/cm^3"}
    ]}
  ]
}
